# Measurements reported in patent US9782454B2 (LONGEVITY BIOTECH, INC., priority 2010, dated 2017).
# Non-standard residues stand in square brackets, D forms with d. No end group written: not given here. ACPC = cyclic beta amino acid; APC = cyclic beta amino acid
# T1: VIPR1 (Homo sapiens, UniProt P32241)
# T1 sequence (P32241 31-457): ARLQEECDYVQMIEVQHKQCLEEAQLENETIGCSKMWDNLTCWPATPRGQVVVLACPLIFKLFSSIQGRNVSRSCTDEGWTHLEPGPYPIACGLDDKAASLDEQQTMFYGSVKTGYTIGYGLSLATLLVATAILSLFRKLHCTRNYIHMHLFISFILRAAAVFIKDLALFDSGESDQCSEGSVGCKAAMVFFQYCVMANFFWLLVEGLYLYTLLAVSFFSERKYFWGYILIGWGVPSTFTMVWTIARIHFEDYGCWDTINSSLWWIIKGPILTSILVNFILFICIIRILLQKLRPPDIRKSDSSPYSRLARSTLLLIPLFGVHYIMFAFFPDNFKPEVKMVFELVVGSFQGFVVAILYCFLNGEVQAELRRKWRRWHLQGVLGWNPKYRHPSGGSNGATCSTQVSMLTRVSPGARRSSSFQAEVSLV
# T2: VIPR2 (Homo sapiens, UniProt P41587)
# T2 sequence (P41587 24-438): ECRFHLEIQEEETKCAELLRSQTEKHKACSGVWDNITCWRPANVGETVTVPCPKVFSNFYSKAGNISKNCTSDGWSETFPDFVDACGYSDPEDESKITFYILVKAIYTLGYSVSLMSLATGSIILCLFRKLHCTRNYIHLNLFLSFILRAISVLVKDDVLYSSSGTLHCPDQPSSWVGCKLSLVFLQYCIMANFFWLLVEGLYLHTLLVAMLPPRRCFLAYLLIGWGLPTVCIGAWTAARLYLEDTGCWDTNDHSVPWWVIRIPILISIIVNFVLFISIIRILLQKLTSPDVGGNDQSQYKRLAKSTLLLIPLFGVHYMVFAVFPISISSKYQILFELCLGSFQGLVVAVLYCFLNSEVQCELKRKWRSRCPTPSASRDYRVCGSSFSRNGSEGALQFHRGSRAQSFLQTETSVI
# T3: CRF2β (Homo sapiens, UniProt Q13324)
# T3 sequence (Q13324 1-438 isoform Q13324-2): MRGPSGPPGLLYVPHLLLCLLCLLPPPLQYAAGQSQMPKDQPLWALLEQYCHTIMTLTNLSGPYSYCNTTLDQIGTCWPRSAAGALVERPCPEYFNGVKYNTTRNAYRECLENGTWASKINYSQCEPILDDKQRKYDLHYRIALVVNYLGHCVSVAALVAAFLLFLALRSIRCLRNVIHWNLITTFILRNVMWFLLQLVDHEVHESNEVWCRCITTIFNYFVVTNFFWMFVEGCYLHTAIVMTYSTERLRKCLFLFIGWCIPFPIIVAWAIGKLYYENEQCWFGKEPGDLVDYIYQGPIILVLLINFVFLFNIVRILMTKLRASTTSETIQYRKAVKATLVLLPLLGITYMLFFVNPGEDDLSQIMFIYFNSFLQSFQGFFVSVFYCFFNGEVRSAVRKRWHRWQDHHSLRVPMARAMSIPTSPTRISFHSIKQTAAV
# T4: CRF2α (Homo sapiens, UniProt Q13324)
# T4 sequence (Q13324 1-411): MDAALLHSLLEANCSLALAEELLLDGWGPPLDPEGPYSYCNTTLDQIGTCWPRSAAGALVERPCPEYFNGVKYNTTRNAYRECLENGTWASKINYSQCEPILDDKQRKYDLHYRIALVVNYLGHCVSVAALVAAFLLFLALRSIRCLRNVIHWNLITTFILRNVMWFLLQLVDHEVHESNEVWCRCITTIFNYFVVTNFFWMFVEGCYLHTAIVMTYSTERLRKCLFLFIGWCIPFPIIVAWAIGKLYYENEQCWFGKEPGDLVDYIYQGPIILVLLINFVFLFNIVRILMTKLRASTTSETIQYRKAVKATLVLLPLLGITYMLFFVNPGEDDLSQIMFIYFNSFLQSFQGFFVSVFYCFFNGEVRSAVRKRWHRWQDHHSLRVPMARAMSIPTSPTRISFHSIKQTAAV
# T5: VIPR1 (VPAC1) receptor, cAMP Hunter cell line expressing VIPR1 (UniProt P32241 31-457, limits assumed)
# T5 sequence (looked up): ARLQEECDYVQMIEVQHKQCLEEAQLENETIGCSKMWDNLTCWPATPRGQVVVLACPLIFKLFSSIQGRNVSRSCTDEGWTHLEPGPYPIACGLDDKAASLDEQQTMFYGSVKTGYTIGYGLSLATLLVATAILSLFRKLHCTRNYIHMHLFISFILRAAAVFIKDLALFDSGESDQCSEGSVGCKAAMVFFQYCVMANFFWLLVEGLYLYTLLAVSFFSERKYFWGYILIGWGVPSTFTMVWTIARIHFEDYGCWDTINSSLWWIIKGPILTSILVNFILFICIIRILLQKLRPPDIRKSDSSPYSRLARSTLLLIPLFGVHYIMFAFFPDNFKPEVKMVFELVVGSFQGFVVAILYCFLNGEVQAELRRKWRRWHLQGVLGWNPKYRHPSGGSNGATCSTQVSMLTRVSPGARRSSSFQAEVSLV
# Legend:
# VIPR1 = biological target: T1, VIPR1; assay: cAMP Hunter cell line, HitHunter cAMP XS+ assay, agonist mode; assay type: cell-based; settings: for % Activity / Mean RLU: VIPR1 cells, cAMP
# Experimental: (§1) Once it was established that the cells were healthy and growing normally, cells were passaged from flasks using cell dissociation reagent buffer and seeded into white walled clear bottom 384-well microplates for compound profiling. For profiling, cells were seeded at a density of 10,000 cells per well in a total volume of 20 μL and were allowed to adhere and recover overnight prior to compound addition. cAMP modulation was determined using the DiscoveRx HitHunter cAMP XS+ assay.
# (§2) For profiling compound in agonist mode, the cells were incubated in the presence of compound at 37° C. for 30 minutes. […] After appropriate compound incubation, assay signal was generated through incubation with DiscoverX lysis cocktail according to the manufacturers standard protocol. Dose curves were plotted using GraphPad Prism or Activity Base. Percentage activity is calculated using the following formula: % Activity=100%×(mean RLU of test sample−mean RLU of vehicle control)/(mean RLU of MAX control−mean RLU of vehicle control).
# VIPR2 = biological target: T2, VIPR2; assay: as above; assay type: cell-based
# Experimental: as §1, §2
# CRF2β = biological target: T3, CRF2β; settings: cited from earlier work
# CRF2α = biological target: T4, CRF2α; settings: cited from earlier work
# AKT = AKT (Homo sapiens, UniProt P31749); settings: read-out: Ki, competitive inhibition of histone H2B phosphorylation by AKT; cited from earlier work
# Sequence of AKT (P31749 whole entry): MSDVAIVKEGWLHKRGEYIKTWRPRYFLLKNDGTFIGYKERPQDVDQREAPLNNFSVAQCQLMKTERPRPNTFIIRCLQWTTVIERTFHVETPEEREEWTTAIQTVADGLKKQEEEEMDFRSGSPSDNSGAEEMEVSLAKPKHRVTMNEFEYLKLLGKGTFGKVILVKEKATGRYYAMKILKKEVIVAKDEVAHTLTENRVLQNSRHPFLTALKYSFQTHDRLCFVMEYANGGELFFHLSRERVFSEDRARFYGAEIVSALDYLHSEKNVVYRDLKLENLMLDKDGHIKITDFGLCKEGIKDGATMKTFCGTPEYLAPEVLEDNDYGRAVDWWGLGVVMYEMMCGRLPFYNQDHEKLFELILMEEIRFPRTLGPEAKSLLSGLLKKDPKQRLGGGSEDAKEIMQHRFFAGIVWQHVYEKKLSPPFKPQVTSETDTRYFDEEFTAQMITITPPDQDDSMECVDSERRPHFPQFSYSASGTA
# [1] = biological target: T5, VIPR1 (VPAC1) receptor, cAMP Hunter …; assay: cell-based or functional assay
molecule,measurement,setting,value
"CC[C@H](C)[C@H](NC(=O)[C@H]1CCC[C@@H]1NC(=O)[C@H](CC(N)=O)NC(=O)[C@H](CC(C)C)NC(=O)[C@H](Cc1ccc(O)cc1)NC(=O)[C@H]1CNC[C@@H]1NC(=O)[C@H](CCCCN)NC(=O)[C@@H](NC(=O)[C@H]1CCC[C@@H]1NC(=O)[C@H](CC(C)C)NC(=O)[C@H](CCC(N)=O)NC(=O)[C@H](CCCCN)NC(=O)[C@H]1CNC[C@@H]1NC(=O)[C@H](CC(C)C)NC(=O)[C@H](CCCNC(=N)N)NC(=O)[C@H]1CCC[C@@H]1NC(=O)[C@H](Cc1ccc(O)cc1)NC(=O)[C@H](CC(N)=O)NC(=O)[C@H](CC(=O)O)NC(=O)[C@@H](NC(=O)[C@H](Cc1ccccc1)NC(=O)[C@@H](NC(=O)[C@H](C)NC(=O)[C@H](CC(=O)O)NC(=O)[C@H](CO)NC(=O)[C@@H](N)Cc1c[nH]cn1)C(C)C)[C@@H](C)O)C(C)C)C(=O)N[C@@H](CC(C)C)C(=O)N[C@@H](CC(N)=O)C(N)=O [Compound 8, HSDAVFTDNYXRLZKQLXVKZYLNXILN]",% Activity,VIPR1; 1.03E−07 M compound,91.7%
same,% Activity,VIPR1; 1.03E−08 M compound,1.5%
same,Mean RLU,VIPR1; 1.03E−08 M compound,13700.0 RLU
same,% Activity,VIPR1; 1.03E−09 M compound,−1.4%
same,Mean RLU,VIPR1; 1.03E−09 M compound,13500.0 RLU
same,% Activity,VIPR1; 1.03E−10 M compound,−2.9%
same,Mean RLU,VIPR1; 1.03E−10 M compound,9960.0 RLU
same,% Activity,VIPR1; 1.03E−11 M compound,−1.5%
same,Mean RLU,VIPR1; 1.03E−11 M compound,10500.0 RLU
same,% Activity,VIPR1; 1.03E−12 M compound,−1.7%
same,Mean RLU,VIPR1; 1.03E−12 M compound,10340.0 RLU
same,% Activity,VIPR1; 5.03E−07 M compound,99.5%
same,% Activity,VIPR1; 5.03E−08 M compound,83.9%
same,% Activity,VIPR1; 5.03E−09 M compound,1.2%
same,Mean RLU,VIPR1; 5.03E−09 M compound,13200.0 RLU
same,% Activity,VIPR1; 5.03E−10 M compound,−2.2%
same,Mean RLU,VIPR1; 5.03E−10 M compound,9520.0 RLU
same,activation of VIPR1,VIPR1; FIG. 3,fully activate VIPR1
same,interaction with VIPR2,VIPR2,does not interact substantially with VIPR2
same,activation of VIPR2,VIPR2; FIG. 3,not activate VIPR2
Astressin,Ki,CRF2β,1 nM
same,Ki,CRF2α,1.5 nM
5-TMR-ARKRERTYSFGHHA ({5‑TMR}-ARKRERTYSFGHHA),Ki,AKT,12 µM
HSDAVFTDNY[ACPC]RL[APC]KQL[ACPC]VK[APC]YLN[ACPC]ILN (ends and bridges not checked) [VIP analogue Compound 8 (HSDAVFTDNYXRLZKQLXVKZYLNXILN)],"EC50, cAMP agonist mode",[1],28 nM
